Tests used:
[1] = target: T1, human zDHHC15 (Homo sapiens, UniProt Q96MV8); test: PSD95-mCHERRY S-acylation in HEK293T cells co-expressing zDHHC15; format: cell-based; settings: 25 μM
T1 construct: expressed in transfected cells; host or cells: HEK293T
T1 sequence (Q96MV8 1-337): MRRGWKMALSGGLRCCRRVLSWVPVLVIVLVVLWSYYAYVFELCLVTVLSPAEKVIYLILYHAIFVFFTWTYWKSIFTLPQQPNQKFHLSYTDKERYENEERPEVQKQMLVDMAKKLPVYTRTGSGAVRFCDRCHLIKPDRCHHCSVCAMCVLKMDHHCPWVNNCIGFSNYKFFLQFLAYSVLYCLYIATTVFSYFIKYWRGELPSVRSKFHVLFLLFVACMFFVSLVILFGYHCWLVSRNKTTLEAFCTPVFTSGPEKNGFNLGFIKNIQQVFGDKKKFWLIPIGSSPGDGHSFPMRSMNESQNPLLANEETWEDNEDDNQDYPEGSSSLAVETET
Text: PSD95 (postsynaptic density protein 95) is a major S-acylated protein that has a critical role in the maturation of excitatory neurons and in synaptic plasticity ([46], [47]). PSD95 can be S-acylated by zDHHC2, zDHHC3, zDHHC7, and zDHHC15 ([6]). […] We therefore tested the effects of TTZ-1 and TTZ-2 on the S-acylation of PSD95 mediated by zDHHC2, zDHHC3, zDHHC7, and zDHHC15. […] In contrast, zDHHC3 and zDHHC7 activities toward PSD95 were unaffected by TTZ-1 and TTZ-2, mirroring the data obtained with GFP-SNAP25 as a substrate.
Figure 9 Activity of TTZ-1 and TTZ-2 against PSD95 S-acylation mediated by human zDHHC2, zDHHC3, zDHHC7, and zDHHC15 expressed in mammalian cells. HEK293T cells were transfected with a plasmid encoding PSD95-mCHERRY together with either a control plasmid pEF-BOS-HA (pEF) or a plasmid encoding either HA-tagged human zDHHC2 (zD2), zDHHC3 (zD3), zDHHC7 (zD7), or zDHHC15 (zD15) for 24 h. Cells were then preincubated for 4 h with TTZ-1 or TTZ-2 (25 μM final) or DMSO control before metabolic labeling with 100 μM C16:0-azide for 4 h. Cells were lysed, and proteins having incorporated C16:0-azide were labeled by click chemistry with an alkyne-IR800 dye. […] The data were quantified, and the graphs below each set of membranes show mean ± SEM of normalized S-acylation of PSD95-mCHERRY (click signal/RFP signal). […]

[2] = target: T2, purified human zDHHC2 (Homo sapiens, UniProt Q9UIJ5); test: In vitro SNAP25 S-acylation by purified zDHHC2, copper-free click chemistry, ELISA; format: biochemical; settings: for inhibition at 3 µM / inhibition at 10 µM: in vitro ELISA, UoS, read-out: zDHHC2-mediated SNAP25 S-acylation inhibition (%); for inhibition at 3 µM: compound 3 μM; for inhibition at 10 µM: compound 10 μM; for IC50 / SNAP25 S-acylation by purified zDHHC2, SDS-PAGE and Western blotting: in vitro; for IC50: ELISA, concentrations 0.3 to 30 μM, read-out: zDHHC2-mediated substrate (SNAP25) S-acylation IC50 (95 CI); for SNAP25 S-acylation by purified zDHHC2, SDS-PAGE and Western blotting: selected samples at 3 or 10 μM
T2 construct: StrepII (C); made in house; host or cells: Sf9 TriEX insect cells, baculovirus
T2 sequence (Q9UIJ5 1-367): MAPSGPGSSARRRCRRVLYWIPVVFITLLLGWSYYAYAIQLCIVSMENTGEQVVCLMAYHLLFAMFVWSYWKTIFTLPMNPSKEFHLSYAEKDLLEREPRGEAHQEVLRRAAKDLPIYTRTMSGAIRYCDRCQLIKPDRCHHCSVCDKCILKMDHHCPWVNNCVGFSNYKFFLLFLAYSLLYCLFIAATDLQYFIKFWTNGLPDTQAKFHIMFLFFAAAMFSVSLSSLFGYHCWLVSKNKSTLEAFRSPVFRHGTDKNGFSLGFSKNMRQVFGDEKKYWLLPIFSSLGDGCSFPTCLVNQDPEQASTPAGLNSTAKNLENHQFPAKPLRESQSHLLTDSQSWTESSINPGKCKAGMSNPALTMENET

Structure (SMILES) | PSD95-mCHERRY S-acylation by zDHHC15 [1] | inhibition at 3 µM [2] | inhibition at 10 µM [2] | IC50 [2] | SNAP25 S-acylation by purified zDHHC2, SDS-PAGE and Western blotting [2]
CCCCCCCOc1ccc(C(=O)Nc2cccc3c2OC(c2nnn[nH]2)CN3)cc1 (stereo not shown) [TTZ-1, N-(2-(1H-Tetrazol-5-yl)-3,4-dihydro-2H-benzo[b][1,4]oxazin-8-yl)-4-(heptyloxy)benzamide] | significantly inhibited | 30% | 77% | 4.7 µM | confirmed the inhibitory activity
O=C(Nc1cccc2c1OC(c1nnn[nH]1)CN2)c1ccc(OCCCCc2ccccc2)cc1 (stereo not shown) [TTZ-2, N-(2-(1H-Tetrazol-5-yl)-3,4-dihydro-2H-benzo[b][1,4]oxazin-8-yl)-4-(4-phenylbutoxy)benzamide] | significantly inhibited | 64% | 81% | 1.3 µM | confirmed the inhibitory activity
